Values joined by “and” are separate entries in the source; they are usually repeats but may differ in a detail not shown here. Equal values may be shown once.
Legend:
[1] = system: circulating white blood cells and neutrophils; details: patients whose bone marrow function has been depressed by chemotherapy; cited from earlier work
[2] = Anti-aging properties of TPA (patient case); type: in vivo, human; details: 1.25 ampoules of 0.125 mg/m^2 every other day for two months
Method: Patient eight, person, was being treated for prostate hypertrophy with 1.25 ampoules of 0.125 mg/m^2 every other day for two months.

[3] = system: CD3, CD4 and CD8 levels in peripheral blood; experiment: Third clinical study of HIV+ patients: CD3, CD4, CD8 by flow cytometry; type: in vivo, human; design: unit not given here; details: one value per patient
Method: Six patients, two males and four females between the ages of 37 and 52 years of age (Patients #13-18), were treated with TPA. Four of these patients previously received TPA treatment in combination with anti-HIV drugs in the two previous clinical studies. The two remaining patients had never been treated with TPA, but had previously received anti-HIV drug regimens. All treatments were stopped three days prior to the initiation of the third clinical study and were not resumed until 60 days after completion of the TPA treatment. The resumption of the standard HIV treatments was required by local health authorities.
Each patient in the study received 150 μg of TPA in 200 ml of sterile saline by intravenous infusion over a 1.5 to 2 hour period daily for 60 days for a total administered dose of 9.0 mg. Following completion of the 60 days of TPA therapy, these patients remained under observation for an additional 60 days though the received no further treatment.
CD3, CD4 and CD8 levels in peripheral blood were quantitated prior to starting treatment, and again at 30 and 60 days using flow cytometry and the appropriate antibodies obtained from B.D. Bioscience, San Diego, Calif. Viral load was determined using conventional methods at Kuang Ann men Hospital, Beijing, China. Patients RBC, WBC, platelets and hemoglobin levels were also measured.

[4] = system: relapsed/refractory AML, other myeloid malignancies, Hodgkin's Disease, non-Hodgkin's lymphoma, solid tumors; experiment: TPA Phase 1 study in relapsed/refractory malignancies; type: in vivo
From the text: An initial TPA Phase 1 study enrolled 35 patients [23 with relapsed/refractory AML, 2 with other myeloid malignancies (CML-blast crisis, myelodysplasia with excess blasts), 3 with Hodgkin's Disease, 3 with non-Hodgkin's lymphoma and 4 with solid tumors]. The majority of patients had relapsed/refractory AML. Our clinical results include one AML patient with stable disease for >5 months, who received 8 TPA infusions. In a second AML patient, a pronounced (5-fold) decline in the number of circulating blasts was seen following TPA administration. This decline in leukemic blasts persisted for 4 weeks, and the patient eventually died from a fungal infection.

[5] = system: pancreatic cancer, non-small-cell lung cancer, nasopharyngeal carcinoma; experiment: TPA as an adjuvant to traditional neoplasm treatments (patient cases); type: in vivo, human
Method: Patient three was diagnosed with terminal metastasized pancreatic cancer. They received five injections of 0.18 mg TPA (0.125 mg/m^2) per week for 12 weeks in addition to chemotherapy.
Patient nine was diagnosed with non-small-cell lung cancer. The cancer had metastasized and was refractory to Tarceva® (erlotinib) and Iressa™ (gefitinib). The patient was treated with a combination of gemcitabine and cisplatin according to standard protocols accompanied by an injection of 0.19 mg of TPA (0.125 mg/m^2) each weekday for eight weeks. […] They have been in remission since Jun. 30, 2010.
Patient thirteen was diagnosed with terminal nasopharyngeal carcinoma and treated with both chemotherapy and radiotherapy. They received injections of 0.19 mg of TPA (0.125 mg/m^2) of TPA a day for five days prior to beginning radiotherapy and then 0.19 mg of TPA (0.125 mg/m^2) every other day for a total of 20 injections.

[6] = Second clinical study of HIV+ patients: periphery blood count; type: in vivo, human; details: one value per patient
Method: Nine of the patients in Example III were given a second treatment of TPA. Of these nine, seven were asymptomatic at the beginning of the second trial. A tenth patient (patient #2a) who was symptomatic and had not previously been treated with TPA was added to the study. Each patient was administered a weight adjusted dosage of TPA (75 μg/sq m) in 200 ml of sterile saline intravenously over one hour. This dosage was given to each patient once a day for ten consecutive days followed by a rest period of ten days for three cycles and a total of 30 doses of TPA. Patients 5a, 6a, and 8a stopped taking anti-AIDS drugs one month prior to beginning the TPA treatment and beginning again one month after the third cycle. Patients 1-4-a, 7a, and 9a-10a continued taking anti-AIDS drugs throughout the treatment.
Blood samples were taken three days prior to starting treatment, after completing the first 10 day cycle of TPA infusion and again after the last TPA infusion and CD3, CD4, CD8, WBC, RBC, HGB and platelets were measured.

[7] = system: metastatic liver cancer; experiment: Treatment of liver cancer (patient case); type: in vivo, human; details: three injections of 0.19 mg TPA; before 50,000+
From the text: Patient X, age ? was diagnosed with metastatic liver cancer. Their initial alpha fetoprotein level was 48,813. They were given chemotherapy and radiation treatments but their alpha fetoprotein level remained elevated at 50,000+.

[8] = system: primary AML cells; experiment: Primary AML cultures ex vivo: cell viability, apoptosis assays and Western analysis of ERK; type: cell-based, human
From the text: In addition to protein kinase C and ERK activation, TPA is a known inducer of NF-κB, a pro-survival transcription factor often constitutively active in AML blasts and leukemic stem cells.

[9] = After first 10-day TPA infusing
[10] = After third 10-day TPA infusing

CCCCCCCCCCCCCC(=O)O[C@@H]1[C@@H](C)[C@@]2(O)[C@@H](C=C(CO)C[C@]3(O)C(=O)C(C)=C[C@@H]23)[C@@H]2C(C)(C)[C@]12OC(C)=O [TPA, 12-O-tetradecanoylphorbol-13-acetate]
circulating white blood cells and neutrophils [1]: increase in circulating white blood cells and neutrophils | skin [2]: their skin became softer and had fewer wrinkles | CD3 ([3]; Sixty Days After TPA): 902 and 2099 and 1305 and 317 and 579 and 2689 | CD4 ([3]; Sixty Days After TPA): 369 and 11 and 46 and 31 and 165 and 721 | CD8 ([3]; Sixty Days After TPA): 485 and 1507 and 1220 and 246 and 290 and 1897 | CD3 ([3]; Thirty Days After TPA, 150 μg i.v. daily for 60 days): 1522 and 1865 and 1477 and 594 and 703 and 2771 | CD4 ([3]; Thirty Days After TPA): 613 and 8 and 105 and 112 and 229 and 735 | CD8 ([3]; Thirty Days After TPA): 796 and 1408 and 1318 and 424 and 343 and 1938 | patients with grade III non-hematologic dose limiting toxicities (DLT) ([4]; 0.188 mg/m2 d1-5, 8-12): 2 out of 3 | maximum tolerated TPA dose as a single agent ([4]; d1-5 and 8-12): 0.125 mg/m2/d | duration of stable disease ([4]; one AML patient, 8 TPA infusions): > 5 months | response of relapsed and refractory Hodgkin's disease ([4]; one patient): partial remission of a chest wall mass | persistence of the decline in leukemic blasts ([4]; second AML patient): 4 weeks | decline in the number of circulating blasts ([4]; second AML patient, following TPA administration): 5 fold | tumor in the pancreas ([5]; five injections of 0.18 mg TPA per week for 12 weeks in addition to chemotherapy, from 6.3 cm): 2.4 cm | skin damage from radiation treatment ([5]; nasopharyngeal carcinoma patient): did not suffer any apparent skin damage | remission ([5]; nasopharyngeal carcinoma patient, chemotherapy and radiotherapy plus 20 injections of 0.19 mg TPA): in remission for two and a half years | side effects of chemotherapy ([5]; non-small-cell lung cancer patient, gemcitabine and cisplatin plus 0.19 mg TPA each weekday for eight weeks): did not lose any hair and had significantly less nausea | remission ([5]; non-small-cell lung cancer patient, gemcitabine and cisplatin plus TPA): in remission since Jun. 30, 2010 | side effects of chemotherapy ([5]; pancreatic cancer patient, TPA in addition to chemotherapy): significantly less vomiting and nausea than in prior chemotherapy treatments without TPA | HGB [6, 9]: 88 g/L and 1.38 g/L and 107 g/L and 1.35 g/L and 142 g/L and 143 g/L and 128 g/L and 57 g/L and 92 g/L and 99 g/L | PLt [6, 9]: 2.38e+11 L⁻¹ and 3.38e+11 L⁻¹ and 3.06e+11 L⁻¹ and 3.15e+11 L⁻¹ and 2.56e+11 L⁻¹ and 2.58e+11 L⁻¹ and 2.21e+11 L⁻¹ and 2.14e+11 L⁻¹ and 1.87e+11 L⁻¹ and 3.25e+11 L⁻¹ | RBC [6, 9]: 2.14e+12 L⁻¹ and 3.83e+12 L⁻¹ and 2.92e+12 L⁻¹ and 3.46e+12 L⁻¹ and 3.48e+12 L⁻¹ and 3.76e+12 L⁻¹ and 3.86e+12 L⁻¹ and 1.99e+12 L⁻¹ and 2.58e+12 L⁻¹ and 2.61e+12 L⁻¹ | WBC [6, 9]: 3.7e+09 L⁻¹ and 9.8e+09 L⁻¹ and 3.6e+09 L⁻¹ and 5.7e+09 L⁻¹ and 4.2e+09 L⁻¹ and 6e+09 L⁻¹ and 4.3e+09 L⁻¹ and 2.6e+09 L⁻¹ and 2.9e+09 L⁻¹ and 4.4e+09 L⁻¹ | HGB [6, 10]: 102 g/L and 100 g/L and 140 g/L and 105 g/L and 144 g/L and 154 g/L and 123 g/L and 128 g/L and 67 g/L and 130 g/L | PLt [6, 10]: 182 ×10^9/L and 124 ×10^9/L and 549 ×10^9/L and 105 ×10^9/L and 130 ×10^9/L and 169 ×10^9/L and 293 ×10^9/L and 138 ×10^9/L (2×) and 170 ×10^9/L | RBC [6, 10]: 2.91e+12 L⁻¹ and 2.52e+12 L⁻¹ and 4.54e+12 L⁻¹ and 2.85e+12 L⁻¹ and 3.61e+12 L⁻¹ and 3.66e+12 L⁻¹ and 3.92e+12 L⁻¹ and 4.19e+12 L⁻¹ and 2.33e+12 L⁻¹ and 4.31e+12 L⁻¹ | WBC [6, 10]: 6.1e+09 L⁻¹ and 1.11e+10 L⁻¹ and 1.36e+10 L⁻¹ and 9.2e+09 L⁻¹ and 1.01e+10 L⁻¹ and 6.5e+09 L⁻¹ and 6e+09 L⁻¹ and 6.8e+09 L⁻¹ and 4e+09 L⁻¹ and 7e+09 L⁻¹ | alpha fetoprotein levels [7]: returned to normal levels within four months | cytotoxic effect (cell viability and apoptosis assays) ([8]; AML cases): direct therapeutic cytotoxic effects in at least a subset of AML cases | phospho-ERK pro-survival signal ([8]; after 24 hour ex vivo exposure): loss of the phospho-ERK pro-survival signal | ERK phosphorylation (Western analysis) ([8]; all primary cultures analyzed, by 1 hour in culture): strongly induced ERK phosphorylation
